Source: US7199259B2, “Resolution of α-(phenoxy)phenylacetic acid derivatives” (Metabolex, Inc., priority 2003, dated 2007)

Experiments:
[1] = Solubility in methylene chloride; format: physicochemical
cytochrome P450 2C9 = cytochrome P450 2C9 (Homo sapiens, UniProt P11712); settings: cited from earlier work
[2] = Solubility of racemic CPTA sodium salt in water; format: physicochemical; settings: sodium hydroxide added to pH about 12.6 versus pH about 9.5
Procedure: A 100-mL water jacketed resin pot with a magnetic stirrer was connected to a recirculating water bath and charged with 3.48 g of the racemic CPTA sodium salt and 20.0 g of water. The bath temperature was warmed to 35° C., and the slurry was stirred for one hour. The agitator was shut off, and the solid was allowed to settle for 30 min. The pH was 9.4. A 0.3036 g-sample of the supernate was removed and diluted to 25.00 mL with acetonitrile, and the solution was assayed by HPLC analysis. Analysis was repeated at 47° C. and at 19° C. An additional 3.01 g of CPTA sodium salt was added to maintain a slurry at the higher temperature, and 25 g of water was added to give a thinner slurry at the lower temperature. The pH was increased to 12.7 at ambient temperature by the addition of 50% aqueous sodium hydroxide, and the analysis was continued at 13.5, 25, 34, and 42° C.

[3] = Solubility of diastereomeric CPTA-CAF D base salts in 2-propanol; format: physicochemical; settings: for Wt % in solution: slurry held overnight
Procedure: Samples of (−)-CPTA CAF D Base and (+)-CPTA CAF D Base (>98% ee) were added to 2-propanol in the amounts shown in Table 8, and mixed using an ultrasonic bath. All samples remained slurries. The slurries were held overnight at the temperature listed, then samples of the supernates were removed and analyzed by quantitative HPLC analysis to determine the CPTA concentration. Additionally, 8.00 g of (−)-CPTA CAF D Base salt required 54.2 g of 2-propanol for solution at 82° C. (14.7 wt %).

[4] = Solubility of CPTA CAF D-Base salts in 2-propanol containing 11% free CPTA; format: physicochemical; settings: 2-propanol with 11% free CPTA, FIG. 3
Procedure: “Solvent” was prepared by dissolving 2.40 g of racemic CPTA in 19.42 g of 2-propanol (Fisher HPLC Grade) or 4.90 g of racemic CPTA in 31.4 g of ethanol. The respective concentrations of CPTA in solution were 11.0% and 13.5%. Solubility of the (−)-CPTA·CAF D-Base Salt (i.e., (−)-Salt) or (+)-CPTA.CAF D-Base Salt (i.e., (+)-Salt) was determined by a gravimetric method. At a given temperature, a portion of the supernatant liquid from a saturated solution was remove to a vial of known weight. The solution weight was determined, and the volatile solvent was evaporated with a purge of nitrogen. The solid was further dried to constant weight in a vacuum oven at about 50° C./1 mm Hg. The vial was re-weighed to determine the loss of volatile solvent and weight of solid remaining. From this, the amount of dissolved CPTA from the “solvent” could be calculated. Subtracting the weight of total solid from the CPTA gave the weight of soluble salt in the solvent.

Chain of cytochrome P450 2C9 (P11712 whole entry): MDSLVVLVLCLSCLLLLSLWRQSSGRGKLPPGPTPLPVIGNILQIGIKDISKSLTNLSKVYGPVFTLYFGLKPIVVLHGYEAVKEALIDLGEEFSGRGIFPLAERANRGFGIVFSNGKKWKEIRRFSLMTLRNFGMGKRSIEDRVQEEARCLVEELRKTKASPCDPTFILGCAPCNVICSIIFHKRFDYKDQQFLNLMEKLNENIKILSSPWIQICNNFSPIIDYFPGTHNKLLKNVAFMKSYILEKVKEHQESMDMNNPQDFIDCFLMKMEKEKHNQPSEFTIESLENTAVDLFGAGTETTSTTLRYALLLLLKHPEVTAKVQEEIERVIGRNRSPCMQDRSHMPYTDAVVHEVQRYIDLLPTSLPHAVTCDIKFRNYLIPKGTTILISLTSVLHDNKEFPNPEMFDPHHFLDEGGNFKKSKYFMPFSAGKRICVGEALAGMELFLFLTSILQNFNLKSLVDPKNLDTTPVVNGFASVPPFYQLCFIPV

SMILES: O=C(O)C(Oc1cccc(C(F)(F)F)c1)c1ccc(Cl)cc1 (racemic) [halofenic acid, (4-chlorophenyl)(3-trifluoromethylphenoxy)acetic acid]
- solubility in methylene chloride [1]: less than 3.4%
- inhibition of cytochrome P450 2C9 (cytochrome P450 2C9; racemic acid): inhibits

SMILES: O=C([O-])C(Oc1cccc(C(F)(F)F)c1)c1ccc(Cl)cc1.[Na+] (racemic) [sodium salt of racemic CPTA]
- aqueous solubility, effect of raising pH [2]: decreased the aqueous solubility

SMILES: NC(CO)C(O)c1ccc([N+](=O)[O-])cc1.O=C(O)C(Oc1cccc(C(F)(F)F)c1)c1ccc(Cl)cc1 (single isomer, unassigned; (+)) [(+)-CPTA CAF D Base Salt]
- Wt % in solution ([3]; 8.5 °C): 1.32 Wt %
- Wt % in solution ([3]; 20.0 °C): 1.85 Wt %
- Wt % in solution ([3]; 45.8 °C): 6.03 Wt %
- solubility in 2-propanol containing 11% free CPTA versus pure 2-propanol [4]: greater solubility

SMILES: NC(CO)C(O)c1ccc([N+](=O)[O-])cc1.O=C(O)C(Oc1cccc(C(F)(F)F)c1)c1ccc(Cl)cc1 (single isomer, unassigned; (-)) [(−)-CPTA CAF D Base Salt]
- Wt % in solution ([3]; 7.8 °C): 0.376 Wt %
- Wt % in solution ([3]; 19.4 °C): 0.688 Wt %
- Wt % in solution ([3]; 45.3 °C): 2.35 Wt %
- solubility in 2-propanol (amount required for solution) ([3]; 82 °C, 8.00 g salt in 54.2 g 2-propanol): 14.7 wt %
- solubility in 2-propanol relative to the (+)-CPTA form ([3]; FIG. 1 profiles): approximately three times less soluble
- solubility in 2-propanol containing 11% free CPTA versus pure 2-propanol [4]: greater solubility

SMILES: O=C(O)C(Oc1cccc(C(F)(F)F)c1)c1ccc(Cl)cc1 (single isomer, unassigned; (-)) [(−)-enantiomer of halofenic acid]
- ability to inhibit cytochrome P450 2C9 compared to the (+)-enantiomer (cytochrome P450 2C9; relative to (+)-enantiomer of halofenic acid): about twenty-fold less active
